The record followed here is patent US5665760A, “Lyophilized thioxanthenone antitumor agents” (priority 1995, dated 1997).

Data set [1] has as its system pancreatic ductal adenocarcinoma #03. Description: antitumor activity in mice against pancreatic ductal adenocarcinoma #03 (Panc 03). It counts as in vivo. Here is the method:
(§1) Representative examples of the invention were tested for antitumor activity in mice according to the following procedure:
(§2) The animals were pooled, implanted subcutaneously with 30 to 60 mg tumor fragments by 12-gauge trocar, and again pooled before unselective distribution to the various treatment and control groups. For early-stage treatment, chemotherapy was started within 1 to 5 days after tumor implantation while the number of cells was relatively small (10^7 to 10^8 cells). For advanced-stage treatment, chemotherapy was delayed until the tumor became relatively large (200 to 300 mg in size). A 300-mg tumor contains approximately 3×10^8 total cells. […] Tumors were measured with a caliper weekly (or twice weekly for the more rapidly growing tumors). Mice were sacrificed when their tumors reached 1500 mg (i.e., before they can cause the animal discomfort). Tumor weights were estimated from two-dimensional measurements.
(§3) The treatment and control groups were measured when the control group tumors reached approximately 700 to 1200 mg in size (Median of Group). The median tumor weight of each group was determined (including zeros). […] A T/C value <10% is considered to indicate highly significant antitumor activity.
(§4) The results are shown in Table I for pancreatic ductal adenocarcinoma #03 and in Table 2 for colon adenocarcinoma #38.

A further data set relates to colon adenocarcinoma #38. Description: antitumor activity in mice against colon adenocarcinoma #38. It counts as in vivo. Here is the method:
as §1, §2, §3, §4

Setting [2] is: Table 1, average body weight 25 g, total doses as in E1.
[3] abbreviates: Table 2, i.v., total dose mg/kg by Example: 6:82, 16(a):690, 18(e):120.
Where [4] appears, read: Table 2, i.p., total dose mg/kg by Example: 10:340, 11:518.
Where [5] appears, read: Table 2, p.o., total dose mg/kg by Example: 10:460, 11:885.
[6] abbreviates: Table 2, p.o., total dose mg/kg by Example: 10:740, 11:1709.

Molecules are shown by their SMILES. Counter-ions that a name gives are not always drawn.

As to `CCN(CC)CCNc1ccc(CNS(C)(=O)=O)c2sc3ccc(Br)cc3c(=O)c12` [Example 33, N-[[1-[[2-(Diethylamino)ethyl]amino]-7-bromo-9-oxothioxanthen-4-yl]methyl]methanesulfonamide], the T/C (usually the result in the treated group divided by that in the control group, in per cent) in data set [1] amounted to 28%. In data set [1] (setting [2]), the “Weight Loss” value came to 2.0 g. Further, the “Drug Deaths” value in data set [1] (Table 1, total doses as in E1) is 0.
As to `CN(C)CCNc1ccc(CN)c2sc3ccccc3c(=O)c12` [18(e), 4-(Aminomethyl)-l-[[2-dimethylamino)ethyl]amino]-9-oxothioxanthen-9-one dihydrochloride·1/2 hydrate], the “Weight Loss” value turned out to be 1.0 g in data set [1] (setting [2]); 1.0 g in the data set with colon adenocarcinoma #38 (setting [3]); 2.2 g with colon adenocarcinoma #38 (mouse, in vivo, iv). Also, the “Drug Deaths” value is reported as 0 in data set [1] (Table 1, total doses as in E1); 4/5 in the data set with colon adenocarcinoma #38 (Table 2, i.v., total dose mg/kg by Example: 2:600, 5:960, 6:132, 7:840, 16(a):1000, 18(e):180); 0 with colon adenocarcinoma #38 (setting [3]).
With `CCN(CC)CCNc1ccc(CNS(=O)(=O)c2ccc(OC)cc2)c2sc3ccccc3c(=O)c12.CS(=O)(=O)O` [Example 23, N-[[1-[[2-(Diethylamino)ethyl]amino]-9-oxothioxanthen-4-yl]methyl](p-methoxy)benzenesulfonamide methanesulfonate], in data set [1], the T/C was 20%. Further, in data set [1] (setting [2]), the “Weight Loss” value came to 2.4 g. Besides, the “Drug Deaths” value in data set [1] (Table 1, total doses as in E1) is 0.
`CCN(CC)CCNc1ccc(CNS(=O)(=O)c2ccc(Cl)c(Cl)c2)c2sc3ccccc3c(=O)c12` [Example 26, N-[[1-[[2-(Diethylamino)ethyl]amino]-9-oxothioxanthen-4-yl]methyl]-3,4-dichlorobenzenesulfonamide methanesulfonate·1/2 hydrate]: the T/C in data set [1] is 13%. In addition, the “Drug Deaths” value in data set [1] (Table 1, total doses as in E1) came out at 0. In data set [1] (mouse, in vivo), the “Weight Loss” value is on record as 2.2 g.
`CCN(CC)CCNc1ccc(CN=CN(C)C)c2sc3ccccc3c(=O)c12` [Example 15, 1-[[2-(Diethylamino)]ethyl]amino]-4-(dimethylaminomethylene-aminomethyl)-thioxanthen-9-one trihydrochloride] gave a T/C in data set [1] of 0%. Also, the “Drug Deaths” value in data set [1] (Table 1, total doses as in E1) came out at 0. The “Weight Loss” value in data set [1] (mouse, in vivo) is reported as 2.0 g.
As to `CCOP(=O)(NCc1ccc(NCCN(CC)CC)c2c(=O)c3ccccc3sc12)OCC` [Example 12], the “Weight Loss” value in data set [1] (setting [2]) came out at 3.2 g. For the same molecule, in data set [1] (Table 1, total doses as in E1), the “Drug Deaths” value was 0.
The molecule `CCN(CC)CCNc1ccc(CN(C)S(=O)(=O)c2ccccc2)c2sc3ccccc3c(=O)c12.CS(=O)(=O)O` [Example 29, N-[[1-[[2-(Diethylamino)ethyl]amino]-9-oxothioxanthen-4-yl]methyl]-N-methyl-benzenesulfonamide methanesulfonate] came in with a T/C in data set [1] of 6%. In data set [1] (setting [2]), the “Weight Loss” value is reported as 2.4 g. In data set [1] (Table 1, total doses as in E1), the “Drug Deaths” value came out at 0.
In turn, `CN(C)CCCNc1ccc(CNS(C)(=O)=O)c2sc3ccccc3c(=O)c12` [21(c), N-[[1-[[3-(Dimethylamino)propyl]amino]-9-oxothioxanthen-4-yl]methyl]methanesulfonamide methanesulfonate·1/2 hydrate] showed a T/C in data set [1] of 0%. Also, the “Drug Deaths” value in data set [1] (Table 1, total doses as in E1) was 0. For the same molecule, the “Weight Loss” value in data set [1] (mouse, in vivo) stood at 4.5 g.
For the molecule `CCN(CC)CCNc1ccc(CNC(=O)c2ccccc2)c2sc3ccccc3c(=O)c12` [Example 11, N-[[1-[[2-(Diethylamino)ethyl]amino]-9-oxothioxanthen-4-yl]methyl]benzamide], the T/C in data set [1] came to 0%; with colon adenocarcinoma #38 (ip), 39%; in the data set with colon adenocarcinoma #38 (po) it was 0%. For the same molecule, the “Weight Loss” value in data set [1] (setting [2]) was found to be 0.8 g; in the data set with colon adenocarcinoma #38 (setting [4]), 0.8 g; in the data set on colon adenocarcinoma #38 (setting [5]), 0.8 g; in the data set on colon adenocarcinoma #38 (setting [6]), 2.0 g. The “Drug Deaths” value in data set [1] (Table 1, total doses as in E1) is listed as 0; in the data set on colon adenocarcinoma #38 (setting [4]) it was 0; in the data set with colon adenocarcinoma #38 (setting [5]), 0; in the data set with colon adenocarcinoma #38 (setting [6]), 0.
Molecule `CCN(CC)CCNc1ccc(C=Nc2ccccc2)c2sc3ccccc3c(=O)c12` [Example 1, 1-[[2-(Diethylamino)ethyl]amino]-4-(N-phenylformimidoyl)thioxanthen-9-one] had a T/C in data set [1] of 0%. For the same molecule, the “Weight Loss” value in data set [1] (setting [2]) is on record as 1.6 g. Also, the “Drug Deaths” value in data set [1] (Table 1, total doses as in E1) came to 0.
In data set [1], `CNCc1ccc(NCCN(C)C)c2c(=O)c3ccccc3sc12` [20(b), 1-[[2-(Dimethylamino)ethyl]amino]-4-[(methylamino)-methyl]thioxanthen-9-onedihydrochloride-5/4 hydrate] registered a T/C of 10%. Moreover, the “Drug Deaths” value in data set [1] (Table 1, total doses as in E1) is recorded as 0. The “Weight Loss” value in data set [1] (mouse, in vivo) was 0.4 g.
As to `CCN(CC)CCNc1ccc(CNS(=O)(=O)c2ccccc2F)c2sc3ccccc3c(=O)c12` [Example 27, N-[[1-[[2-(Diethylamino)ethyl]amino]-9-oxothioxanthen-4-yl]methyl]-2-fluorobenzenesulfonamide], the T/C in data set [1] worked out at 5%. For the same molecule, the “Weight Loss” value in data set [1] (setting [2]) is reported as “+0.8 g”. Moreover, the “Drug Deaths” value in data set [1] (Table 1, total doses as in E1) is recorded as 0.
With `CCN(CC)CCNc1ccc(CNS(C)(=O)=O)c2sc3ccc(O)cc3c(=O)c12` [Example 37, N-[[1-(2-Diethylamino)ethyl]amino]-7-hydroxy-9-oxothioxanthen-4-yl]methyl]methanesulfonamide·3/4 hydrate], the T/C in data set [1] was determined as 7%. Further, in data set [1] (Table 1, total doses as in E1), the “Drug Deaths” value worked out at 0. The “Weight Loss” value in data set [1] (mouse, in vivo) amounted to 0 g.
`CN(C)CCNc1ccc(CNS(C)(=O)=O)c2sc3ccccc3c(=O)c12.CS(=O)(=O)O` [18(f), N-[[1-[[2-(Dimethylamino)ethyl]amino]-9-oxothioxanthen-4-yl]methyl]methanesulfonamide methanesulfonate]: the “Weight Loss” value in data set [1] (setting [2]) is on record as 5.2 g. The “Drug Deaths” value in data set [1] (Table 1, total doses as in E1) is 2/5.
In data set [1], `CCN(CC)CCCNc1ccc(CNC)c2sc3ccccc3c(=O)c12` [17(f), 1-[[3-(Diethylamino)propyl]amino]-4-(methylaminomethyl)thioxanthen-9-one dihydrochloride 3/2 hydrate] came in with a T/C of 17%. Besides, in data set [1] (Table 1, total doses as in E1), the “Drug Deaths” value was determined as 0. Further, the “Weight Loss” value in data set [1] (mouse, in vivo) is listed as 2.0 g.
Molecule `CCNCc1ccc(NCCN(CC)CC)c2c(=O)c3ccccc3sc12` [Example 14, 1-[[2-(Diethylamino)ethyl]amino]-4-[(ethylamino)-methyl]thioxanthen-9-one] had a T/C in data set [1] of 0%. Besides, the “Weight Loss” value in data set [1] (setting [2]) is recorded as 1.2 g. For the same molecule, in data set [1] (Table 1, total doses as in E1), the “Drug Deaths” value is on record as 0.
For `CCN(CC)CCNc1ccc(CN)c2sc3ccccc3c(=O)c12` [Example 4, 4-(Aminomethyl)-1-[[2-(diethylamino)ethyl]amino]-thioxanthen-9-one], in that order: 0%, 0.4 g and 0.
In data set [1], `CCCN(Cc1ccc(NCCN(CC)CC)c2c(=O)c3ccccc3sc12)S(C)(=O)=O` [Example 28, N-[[1-[[2-(Diethylamino)ethyl]amino]-9-oxothioxanthen-4-yl]methyl]-N-propyl-methanesulfonamide] had a T/C of 0%. For the same molecule, the “Weight Loss” value in data set [1] (setting [2]) is recorded as 2.8 g. Further, the “Drug Deaths” value in data set [1] (Table 1, total doses as in E1) was 0.
In the same order, the values of `CCN(CC)CCNc1ccc(CN(C)S(=O)(=O)CC)c2sc3ccccc3c(=O)c12.CS(=O)(=O)O` [Example 22, N-[[1-[[2-(Diethylamino)ethyl]amino]-9-oxothioxanthen-4-yl]methyl]-N-methyl-ethanesulfonamide methanesulfonate] are 0%, 3.2 g and 0.
In data set [1], `CCN(CC)CCNc1ccc(CN(C)S(C)(=O)=O)c2sc3ccccc3c(=O)c12` [Example 8, N-[[1-[[2-(Diethylamino)ethyl)amino]-9-oxothioxanthen-yl]methyl]N-methylmethanesulfonamide] showed a T/C of 0%. Also, the “Drug Deaths” value in data set [1] (Table 1, total doses as in E1) came out at 0. Further, the “Weight Loss” value in data set [1] (mouse, in vivo) turned out to be 0.8 g.
Consider `CCN(CC)CCNc1ccc(CNS(=O)(=O)CC)c2sc3ccccc3c(=O)c12.CS(=O)(=O)O` [Example 24, N-[[1-[[2-(Diethylamino)ethyl]amino]-9-oxothioxanthen-4-yl]methyl]ethanesulfonamide methanesulfonate], for which the T/C in data set [1] is 0%. Besides, in data set [1] (setting [2]), the “Weight Loss” value is 2.3 g. In data set [1] (Table 1, total doses as in E1), the “Drug Deaths” value is recorded as 0.
`CNCc1ccc(NCCCN(C)C)c2c(=O)c3ccccc3sc12` [19(e), 1-[[3-(Dimethylamino)propyl]amino]-4-[(methylaminomethyl]thioxanthen-9-one dihydrochloride monohydrate] showed a T/C in data set [1] of 4%. For the same molecule, in data set [1] (Table 1, total doses as in E1), the “Drug Deaths” value is 0. The “Weight Loss” value in data set [1] (mouse, in vivo) is 3.4 g.
As for `CCN(CC)CCNc1ccc(CNS(=O)(=O)c2ccccc2)c2sc3ccccc3c(=O)c12` [Example 9, N-[[1-[[2-(Diethylamino)ethyl]amino]-9-oxothioxanthen-4-yl]methyl]phenylsulfonamide], the T/C in data set [1] stood at 8%. The “Weight Loss” value in data set [1] (setting [2]) is listed as 1.6 g. Moreover, the “Drug Deaths” value in data set [1] (Table 1, total doses as in E1) is on record as 0.
